Experimental data: patent US20060088477A1 (priority 2004, published 2006)

Key:
[1] = zinc salt; cited from earlier work
normal cells = details: cited from earlier work
viruses = details: cited from earlier work
inflammation = test system: inflammation
Excerpt: Another exemplary metal complex is disodium monozinc (II) citrate dihydrate, sold under the tradename MZC™ by National Research Laboratories, Ltd. of Cincinnati, Ohio.

Compound	pH [1]	toxicity to normal cells (normal cells)	toxicity to viruses (viruses)	anti-inflammatory performance (inflammation)
CC(=O)[O-].CC(=O)[O-].[Zn+2] [zinc acetate]	about 5	quite toxic to normal cells	very toxic to viruses	–
disodium monozinc (II) citrate dihydrate [MZC]	–	–	–	dramatic anti-inflammatory performance
